Experimental data taken from US20250359549A1, “PESTICIDE BACTERICIDAL COMPOSITION, WATER DISPERSIBLE GRANULE AND PREPARATION METHOD AND USE THEREOF” (QINGDAO RAINBOW CHEMICAL CO., LTD., priority 2023, published 2025).
Where two headings read alike, the source gives them in different places.

Assays:
plasmopara viticola = experiment: Indoor toxicity measurement, leaf disk method; assay type: in vivo; conditions: grape downy mildew; for EC50: Plasmopara viticola, foliar, read-out: Measured EC50 value (X2)
Description: After the pesticide solution was naturally dried in air, each treated leaf disc with an upward back was placed in a culture dish, and absorbent paper moistened with the same pesticide solution was placed at the bottom of the culture dish. 15 leaf discs were placed in a concentric circle for each dish, with 4 repetitions for 1 dish treated. Blank control was treated with a 0.1% Tween-80 aqueous solution. Inoculation was performed after 24 h of pesticide treatment. […] The spore sac suspension was cultured with an artificial climate chamber. […] The severity of the disease was determined according to the percentage of the diseased area on the leaf disc to the leaf disc area, the number of diseased leaf discs and the severity of the disease were recorded, and the disease index and prevention and control effect were calculated according to the formula. […] The toxicity regression curve equation y=a+bx and the correlation coefficient r were obtained, and the EC50 of each single agent and different proportions of mixtures was calculated based on the regression equation. Based on the EC50 values of each single agent and compounded agent, the synergistic coefficients (SR) of each compounded agent were calculated according to Wadley method, and the compounding effect was evaluated by using SR value. […] In equations (1) and (2), SR is the synergistic coefficient of the mixture; X1 is the theoretical EC50 value of the mixture, unit: milligrams per liter (mg/L); X2 is the measured EC50 value of the mixture, unit: milligrams per liter (mg/L). […] X1′ is the theoretical value of the mixture, unit: milligrams per liter (mg/L); X2 is the measured value of the mixture, unit: milligrams per liter (mg/L). […] Similarly, the synergistic coefficients SRs of chlorothalonil and picoxystrobin (A+C)+tebuconazole (B) (referred to as (A+C)+B), tebuconazole and picoxystrobin (B+C)+chlorothalonil (A) (referred to as (B+C)+A) can be calculated.

[1] = 20° C., cited from earlier work
[2] = cited from earlier work
[3] = 25° C.; cited from earlier work

| SMILES | EC50 (plasmopara viticola) | solubility in an organic solvent ([1]; dichloromethane) | solubility in an organic solvent ([1]; hexane) | Hydrolysis ([2]; pH>9) | Stability ([2]; storage at room temperature, weak alkaline and acidic aqueous solutions, UV radiation) | distribution coefficient log P [3] | Measured EC50 value (X2) (plasmopara viticola) |
| --- | --- | --- | --- | --- | --- | --- | --- |
| CC(C)(C)C(O)(CCc1ccc(Cl)cc1)Cn1cncn1 (racemic) [Tebuconazole] | 3.29 µg/mL | > 200 g/L | < 0.1 g/L | – | – | – | – |
| N#Cc1c(Cl)c(Cl)c(Cl)c(C#N)c1Cl [Chlorothalonil] | 24.6 µg/mL | – | – | slowly hydrolyzed | stably stored at room temperature, and stable to weak alkaline and acidic aqueous solutions and UV radiation | 2.92 | – |
| CO/C=C(/C(=O)OC)c1ccccc1COc1cccc(C(F)(F)F)n1 [Picoxystrobin] | – | – | – | – | – | – | 2.48 mg/L |
